Measurements taken from ChEMBL document CHEMBL1150734, “Marine soft corals of the genus Pseudopterogorgia: a resource for novel anti-inflammatory diterpenoids” (J Nat Prod, 1987).
≈ marks a conversion by molar mass, not a printed value.

Legend:
Mus musculus [1] = assay: Antiinflammatory activity in mouse assessed as reduction PMA-induced ear edema at 50 ug/ear administered relative to control; format: functional; set-up: scale not given: the % may be the effect or the level left; settings: at 50 µg/ear
Mus musculus [2] = assay: Antiinflammatory activity in ip dosed mouse assessed as inhibition of writhing; format: functional
Mus musculus [3] = assay: Antiinflammatory activity in ip dosed mouse assessed as reduction PMA-induced ear edema; format: functional
[4] = Inhibition of tubulin polymerization
[5] = Inhibition of cell division of fertilized sea urchin egg; settings: echinoidea
[6] = Inhibition of nuclear division of fertilized sea urchin egg; settings: echinoidea
Mus musculus [7] = assay: Antiinflammatory activity in mouse assessed as reduction PMA-induced ear edema; format: functional

| SMILES | Activity (Mus musculus [1]) | ED50 (Mus musculus [2]) | ED50 (Mus musculus [3]) | further results |
| --- | --- | --- | --- | --- |
| CC(=O)O[C@@H]1[C@@H](O)[C@H](Oc2c(O)c(C)c3c4c2[C@@H](C)CC[C@@H]4[C@@H](C)C[C@@H]3C=C(C)C)OC[C@H]1O [PSEUDOPTEROSIN C] | 75% | 4 mg/kg | 10 mg/kg |  |
| CC(=O)O[C@@H]1CO[C@@H](Oc2c(O)c(C)cc3c2[C@@H](C)CC[C@@H]3[C@@H](C)CCC=C(C)C)[C@@H](O)[C@@H]1O | 75% |  |  |  |
| CC(=O)O[C@H]1[C@H](O)[C@H](Oc2c(O)c(C)cc3c2[C@@H](C)CC[C@@H]3[C@@H](C)CCC=C(C)C)OC[C@H]1O | 75% |  |  |  |
| CC(=O)O[C@@H]1CO[C@@H](Oc2c(O)c(C)c3c4c2[C@@H](C)CC[C@@H]4[C@@H](C)C[C@@H]3C=C(C)C)[C@H](O)[C@H]1O [PSEUDOPTEROSIN D] | 75% | 4 mg/kg | 10 mg/kg |  |
| C=C(C)[C@H]1C2=CC(C(=O)OC)=C(C[C@H](C(C)C)[C@H]3O[C@H]3C3=C[C@H]1OC3=O)O2 [PSEUDOPTEROLIDE] | 83% |  |  | ED50 [4]: 8 µg/mL (≈ 21.5 µM); Activity [5]: Non-toxic; Activity [6]: Non-toxic |
| CC(C)=C[C@H]1C[C@H](C)[C@H]2CC[C@H](C)c3c(O[C@@H]4OC[C@@H](O)[C@H](O)[C@H]4O)c(O)c(C)c1c32 [PSEUDOPTEROSIN A] | 75% | 4 mg/kg | 10 mg/kg | ED50 (Mus musculus [7]): 8.3 µg |
| CC(=O)O[C@@H]1[C@H](Oc2c(O)c(C)cc3c2[C@@H](C)CC[C@@H]3[C@@H](C)CCC=C(C)C)OC[C@@H](O)[C@H]1O [SECO-PSEUDOPTEROSIN B] | 75% |  |  |  |
| CC(=O)O[C@H]1[C@H](Oc2c(O)c(C)c3c4c2[C@@H](C)CC[C@@H]4[C@@H](C)C[C@@H]3C=C(C)C)OC[C@@H](O)[C@@H]1O [PSEUDOPTEROSIN B] | 75% | 4 mg/kg | 10 mg/kg |  |
| CC(C)=CCC[C@H](C)[C@H]1CC[C@H](C)c2c1cc(C)c(O)c2O[C@@H]1OC[C@@H](O)[C@@H](O)[C@@H]1O [SECO-PSEUDOPTEROSIN A] | 75% |  |  |  |
